Assays:
Acetylcholinesterase = target: T1, Acetylcholinesterase (Bos taurus, UniProt P23795)
T1 sequence (P23795 whole entry): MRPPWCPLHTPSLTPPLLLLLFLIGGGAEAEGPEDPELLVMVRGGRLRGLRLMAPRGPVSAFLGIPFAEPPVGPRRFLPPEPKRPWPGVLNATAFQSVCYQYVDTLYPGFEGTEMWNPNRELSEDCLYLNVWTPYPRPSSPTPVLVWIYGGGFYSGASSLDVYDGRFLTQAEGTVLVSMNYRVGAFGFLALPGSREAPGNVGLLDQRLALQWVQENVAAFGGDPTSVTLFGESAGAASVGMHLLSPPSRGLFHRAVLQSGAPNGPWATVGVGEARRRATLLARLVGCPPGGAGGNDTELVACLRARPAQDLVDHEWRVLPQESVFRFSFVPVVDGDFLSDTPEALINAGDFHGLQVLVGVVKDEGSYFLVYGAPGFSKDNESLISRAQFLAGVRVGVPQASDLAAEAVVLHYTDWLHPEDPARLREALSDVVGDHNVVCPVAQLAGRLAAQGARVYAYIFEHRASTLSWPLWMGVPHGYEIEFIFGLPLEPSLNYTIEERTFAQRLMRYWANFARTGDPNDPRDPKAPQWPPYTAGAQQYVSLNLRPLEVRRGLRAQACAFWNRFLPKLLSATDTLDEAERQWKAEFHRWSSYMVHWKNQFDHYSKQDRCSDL
Description: Inhibition of acetylcholinesterase (AChE) of fetal bovine serum (FBS)

Butyrylcholinesterase = Butyrylcholinesterase (Equus caballus, UniProt Q9N1N9)
Butyrylcholinesterase, sequence (Q9N1N9 whole entry): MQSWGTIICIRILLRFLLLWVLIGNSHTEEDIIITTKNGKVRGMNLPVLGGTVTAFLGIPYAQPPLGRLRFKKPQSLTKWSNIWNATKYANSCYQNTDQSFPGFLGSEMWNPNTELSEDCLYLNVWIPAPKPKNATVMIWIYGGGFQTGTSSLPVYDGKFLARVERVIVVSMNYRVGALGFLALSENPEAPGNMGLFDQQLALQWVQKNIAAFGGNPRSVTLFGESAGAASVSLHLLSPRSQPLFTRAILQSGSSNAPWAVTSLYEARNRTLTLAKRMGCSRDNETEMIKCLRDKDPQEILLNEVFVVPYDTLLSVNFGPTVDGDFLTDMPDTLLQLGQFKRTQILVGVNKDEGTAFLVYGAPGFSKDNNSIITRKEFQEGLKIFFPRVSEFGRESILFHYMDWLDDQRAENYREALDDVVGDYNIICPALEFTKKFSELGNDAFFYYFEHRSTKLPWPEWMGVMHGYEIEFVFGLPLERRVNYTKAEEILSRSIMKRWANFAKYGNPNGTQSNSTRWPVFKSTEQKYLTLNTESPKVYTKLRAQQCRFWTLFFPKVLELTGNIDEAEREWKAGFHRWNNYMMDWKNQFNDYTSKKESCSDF
Description: Inhibition of equine (Eq) Butyrylcholinesterase

SMILES | Ki (Acetylcholinesterase) | Ki (Butyrylcholinesterase)
Clc1cc(Cl)c2nc3c(c(SCCCCCCCNc4c5c(nc6ccccc46)CCCC5)c2c1)CCCC3 | 290 nM | 80 nM
Nc1c2c(nc3cc(Cl)cc(Cl)c13)CCCC2 | 1 nM | 50 nM
c1ccc2c(NCCCCSc3c4c(nc5ccccc35)CCCC4)c3c(nc2c1)CCCC3 | 650 nM | 40 nM
c1ccc2c(SCCCCCCCSc3c4c(nc5ccccc35)CCCC4)c3c(nc2c1)CCCC3 | > 10000 nM | 380 nM
c1ccc2c(NCCCCCCCNc3c4c(nc5ccccc35)CCCC4)c3c(nc2c1)CCCC3 |  | 2 nM
Clc1cc(Cl)c2c(SCCCCCCNc3c4c(nc5ccccc35)CCCC4)c3c(nc2c1)CCCC3 | 120 nM | 45 nM
Clc1cc(Cl)c2c(NCCCCCCCSc3c4c(nc5ccccc35)CCCC4)c3c(nc2c1)CCCC3 |  | 250 nM
c1ccc2c(NCCCCCCCSc3c4c(nc5ccccc35)CCCC4)c3c(nc2c1)CCCC3 | 340 nM | 35 nM

Reference: ChEMBL document CHEMBL1134129, “Novel and potent tacrine-related hetero- and homobivalent ligands for acetylcholinesterase and butyrylcholinesterase” (Bioorg Med Chem Lett, 2001)
